Assays:
PC12 cells = experiment: Screen for NGF-like activity in cultured PC12 cells (neurite outgrowth, potentiation of NGF); type: cell-based, rat; settings: 2 days incubation, with or without a limiting concentration of NGF
Protocol: Cultured PC12 cells (rat adrenal pheochromocytoma from ATCC) have receptors for NGF. Responses include promotion of neurite outgrowth and elevation of choline acetyltransferase (ChAT) (L. A. Greene and A. S. Tischler, Cell Neurobiol., 3, 373 (1982)).
The following assay is substantially as described in H L White and P W Scates, Neurochem. Res., 16, 63 (1991). PC12 cells were cultured at 37° C. in DMEM supplemented with fetal bovine serum, horse serum, glutamine, penicillin, streptomycin and non-essential amino acids. Cultures were split 1:4 every 4 or 5 days. Exponentially dividing cells were plated in fresh medium on collagen-coated 12-well plastic dishes. After allowing one day for cell attachment, the medium was replaced with low serum medium, with or without test compounds and also with or without a limiting concentration of NGF, with each condition in triplicate. The medium may contain up to 0.1% ethanol, which was used as a solvent for most compounds being tested. Cells were examined daily for morphological changes using an Olympus IMT-2 inverted research microscope. After 2 days incubation with test compounds, cells and media were transferred to 1.5 mL Eppendorf tubes. Aliquots of 20 uL were reserved for cell counting and viability determination by trypan blue exclusion. The remaining cell suspensions were centrifuged, and the cell pellets were washed once in serum-free medium and finally resuspended in 30 uL of distilled water containing eserine, an inhibitor of acetylcholinesterase. The suspensions were stored at −80° C. until they were assayed for choline acetyltransferase. Compounds are judged NGF-like in this primary screen if they (1) increase the activity of choline acetyltransferase, (2) enhance NGF-stimulated neurite outgrowth or (3) potentiate and appear additive with the action of NGF itself.

PC-12 cells = settings: cited from earlier work
working memory = settings: mice; cited from earlier work

| Structure (SMILES) | melting point | NGF-like in vitro activity (ChAT increase, enhancement of NGF-stimulated neurite outgrowth and/or potentiation of NGF) (PC12 cells) | also measured |
| --- | --- | --- | --- |
| Nc1ncc(Cc2ccc(Cl)cc2)c(NCCCCO)n1 [2-Amino-4-[2-(2-hydroxyethyl)ethylamino]-5-(4-chlorobenzyl)pyrimidine] | – | especially potent activities | – |
| Nc1ncc(Cc2ccc(Cl)cc2)c(N2CCC(O)CC2)n1 [2-Amino-5-(4-chlorobenzyl)-4-(4-hydroxypiperidino)pyrimidine] | – | especially potent activities | – |
| Nc1ncc(Oc2ccc(Cl)cc2)c(N2CCN(C=O)CC2)n1 [2-amino-5-(4-chlorophenoxy)-4-(4-formylpiperazino)pyrimidine] | – | especially potent activities | – |
| CN1CCN(c2nc(N)ncc2Oc2ccc(Cl)cc2)CC1 [2-amino-5-(4-chlorophenoxy)-4-(4-methylpiperazino)pyrimidine] | – | especially potent activities | – |
| O=C(CCn1cnc2c(=O)[nH]cnc21)Nc1ccc(C(=O)O)cc1 [AIT-082, 4[[3-(1,6-dihydro-6-oxo-9-purin-9-yl)-1-oxopropyl]amino]benzoic acid] | – | – | NGF action in cultured PC-12 cells (PC-12 cells): enhance NGF action; age induced working memory deficits (working memory): restore age induced working memory deficits |

More lines, main results first:

| melting point | Structure (SMILES) | NGF-like in vitro activity (ChAT increase, enhancement of NGF-stimulated neurite outgrowth and/or potentiation of NGF) (PC12 cells) | also measured |
| --- | --- | --- | --- |
| 229 to 231 °C | O=C(Nc1ccccc1)Nc1ncc(Oc2ccc(Cl)cc2)c(N2CCOCC2)n1 | – | – |
| 181 to 182 °C | CN(C)c1nc(N)ncc1Cc1ccccc1 | – | – |
| 123 to 125 °C | CC(C)(C)C(=O)OCCN1CCN(c2nc(N)ncc2Oc2ccc(Cl)cc2)CC1 | – | – |
| 93 to 95 °C | Nc1ncc(Oc2ccc(Cl)cc2)c(N2CCNCC2)n1 | – | – |
| 121 to 123 °C | Nc1ncc(Oc2ccc(Cl)cc2)c(N2CCN(CCO)CC2)n1 | – | – |
| 140 to 141 °C | Cl.Nc1ncc(Oc2ccc(Cl)cc2)c(NCCOCCO)n1 | – | – |
| 138 to 140 °C | Nc1ncc(Oc2ccc(Cl)cc2)c(N2CCOCC2)n1 | – | – |
| 153 to 157 °C | CC(=O)N1CCN(c2nc(N)ncc2Oc2ccc(Cl)cc2)CC1 | – | – |
